Data from patent US20250002506A1, “IMPROVED PROCESS FOR THE PREPARATION OF LURBINECTEDIN AND ITS MORPHS THEREOF” (RK Pharma Inc., priority 2021, published 2025).

How the values were obtained:
[1] = Chemical stability under long term and accelerated storage conditions; type: physicochemical
[2] = Stability study: storage in a sealed reagent bottle at -20° C for three months (description, water content, HPLC purity, XRPD); type: physicochemical; set-up: HPLC impurity at RRT 0.07 / HPLC impurity at RRT 0.20 / HPLC impurity at RRT 0.85 / HPLC impurity at RRT 0.98 / HPLC impurity at RRT 1.02 / HPLC impurity at RRT 1.07 / HPLC impurity at RRT 1.17 / HPLC impurity at RRT 1.23 / HPLC impurity at RRT 1.31 / HPLC impurity at RRT 1.38 / HPLC impurity at RRT 1.41: unit not given here
Method: An appropriate amount of the sample of the amorphous as well as RK-1 polymorphic form of Lurbinectedin obtained in examples 5 to 9 was placed in a reagent bottle at-20° C. under a sealed condition for the period of three months to perform a stability test. X-ray powder diffraction pattern, HPLC purity as well as DSC Chromatogram of amorphous as well as RK-1 polymorphic form of Lurbinectedin was evaluated again after storing for period of 3 months. Result of the stability study of both amorphous (Obtained in Example 5) as well as RK-1 polymorphic form of Lurbinectedin (Obtained in Example 6) has been tabulated in Tables 1-2 given below. […] Characteristic peaks in the XRPD pattern and DSC chromatogram of RK-1 polymorphic form of Lurbinectedin obtained initially as well as after storing for the period of three months have been tabulated in Table 3 given below.

[3] = at 3 months (A/3M), -20° C, sealed

HPLC impurity at RRT 0.07 [2, 3]	HPLC impurity at RRT 0.20 [2, 3]	HPLC impurity at RRT 0.85 [2, 3]	HPLC impurity at RRT 0.98 [2, 3]	HPLC impurity at RRT 1.02 [2, 3]	HPLC impurity at RRT 1.07 [2, 3]	HPLC impurity at RRT 1.31 [2, 3]	HPLC impurity at RRT 1.38 [2, 3]	HPLC impurity at RRT 1.41 [2, 3]	HPLC purity, LRBN [2, 3] [%]	Description ([2]; at 3 months, -20° C, sealed)	Water content ([2]; at 3 months, -20° C, sealed) [%]	Description ([2]; initial)	HPLC impurity at RRT 0.20 ([2]; initial)	HPLC impurity at RRT 0.98 ([2]; initial)	HPLC impurity at RRT 1.07 ([2]; initial)	HPLC impurity at RRT 1.17 ([2]; initial)	HPLC impurity at RRT 1.23 ([2]; initial)	HPLC impurity at RRT 1.31 ([2]; initial)	HPLC purity, LRBN ([2]; initial) [%]	SMILES	also measured
																				COc1ccc2[nH]c3c(c2c1)CCN[C@]31CS[C@@H]2c3c(OC(C)=O)c(C)c4c(c3[C@H](COC1=O)N1[C@@H]2[C@H]2c3c(cc(C)c(OC)c3O)C[C@@H]([C@@H]1O)N2C)OCO4 [Pure Lurbinectedin, Lurbinectedin]	Period for which chemically stable [1]: about 6 months
0.06	0.02	0.01	0.03	0.05	0.02	0.02	0.01	0.01	99.77	Off white	10.1	Off white	0.03	0.03	0.02	0.04	0.03	0.02	99.86	COc1ccc2[nH]c3c(c2c1)CCN[C@]31CS[C@@H]2c3c(OC(C)=O)c(C)c4c(c3[C@H](COC1=O)N1[C@@H]2[C@H]2c3c(cc(C)c(OC)c3O)C[C@@H]([C@@H]1O)N2C)OCO4 [polymorphic form RK-1 of Lurbinectedin, Lurbinectedin]	Description ([2]; after 1 month, -20° C, sealed): Off white powder; Description ([2]; at 3 months, -20° C, sealed, listed as RK-1 polymorphic form of Lurbinectedin): Off white powder; Water content ([2]; initial): 9.69%; Description ([2]; initial, listed as RK-1 polymorphic form of Lurbinectedin): Off white powder; Stability on storage (XRPD pattern after three months same as obtained initially) ([2]; -20° C, sealed): stable on storage
0.06	0.02	0.01	0.03	0.05	0.02	0.02	0.01	0.01	99.77	Off white	9.91	Off white	0.02	0.03	0.02	0.04	0.03	0.02	99.81	COc1ccc2[nH]c3c(c2c1)CCN[C@]31CS[C@@H]2c3c(OC(C)=O)c(C)c4c(c3[C@H](COC1=O)N1[C@@H]2[C@H]2c3c(cc(C)c(OC)c3O)C[C@@H]([C@@H]1O)N2C)OCO4 [Amorphous form of Lurbinectedin, Lurbinectedin]	Water content ([2]; initial): 9.67%; Stability on storage (XRPD pattern after three months same as obtained initially) ([2]; -20° C, sealed): stable on storage
